Data taken from patent US11311609B2, “Regulating chimeric antigen receptors” (DANA-FARBER CANCER INSTITUTE, INC., priority 2017, dated 2022).

Key:
[1] = tested on: SMART-CAR; assay: SMART-CAR expression in Jurkat T-cells by flow cytometry with HA-antibody; assay type: cell-based, human; settings: 4 hour pretreatment 250 nM, wash, retreatment with 250 nM dFKBP7; 1:1 co-culture
From the text: FIG. 27 is a histogram plot illustrating the ability to track SMART-CAR expression in Jurkat cells. SMART-CAR expressing Jurkat cells were stained with a HA-antibody and subsequently labelled with a secondary Alexa647 fluorescent antibody. Stained cells were subject to flow cytometry with excitation with a 647 nm laser and HA expression quantified via Alexa647 fluorescent signal (Example 24). The observed shift in signal illustrates the ability to track SMART-CAR expression in Jurkat T cells.
FIG. 31 are line plots tracking CD19 positive tumor cells and SMART-CAR expression levels as described in the experimental setup in FIG. 20 and described in Example 26. After the 4 hour pretreatment with 250 nM of dFKBP7, SMART-CAR expressing Jurkats were mixed in a 1:1 ratio with CD19 positive tumor cells (Daudi: top and Raji: bottom) in the presence (green line) or absence (blue line) of 250 nM of dFKBP7. […]
FIG. 27 illustrates the use of flow cytometry to monitor SMART-CAR protein expression in Jurkat T-cells. […] This allows for quantitative measurements of SMART-CAR protein expression levels.
SMART-CAR expressing Jurkat cells were pretreated with dFKBP7 at 250 nM for 4 hours to allow for maximal degradation of SMART-CAR. […] The two experimental arms were then mixed at a 1:1 ratio with CD19 positive tumor cells and CD19-positive tumor cells monitored by flow cytometry. […]

[2] = molecular target: T1, FKBP12WT (Homo sapiens, UniProt P62942); assay: Immunoblot of wild type FKBP12 degradation in 293FT cells (CRBN-WT or CRBN-/-); assay type: cell-based; settings: 4 hours
T1 construct: HA; expressed in transfected cells; host or cells: 293FT cells (CRBN-WT or CRBN-/-)
Description: FIG. 6 is an immunoblot of cells treated with bi-functional molecules described in the present invention.
The dTAG is predicated on the selectivity of FKBP* specific ligands over endogenous, wild type FKBP. […] An immunoblot of cells treated with bi-functional molecules described in the present invention was performed. 293FT cells (CRBN-WT or CRBN−/−) expressing either HA-tagged FKBP12WT or FKBP* were treated with indicated concentrations of dFKBP7 for 4 hours.
Isogenic 293FT cells (CRBN-WT or CRBN−/−) were engineered to express either FKBP12WT or FKBP*. Cells were treated with 100 nM of either dFKBP7 or dFKBP13 for 4 hours before lysates were prepared for western immunoblot analysis.

[3] = tested on: proteins fused to mutant FKBP* with an HA tag; assay: Immunoblot of dTAG fusion proteins in MV4;11 leukemia cells; assay type: cell-based; settings: indicated concentrations, 16 hours
Description: FIG. 18A and FIG. 18B are immunoblots of cells treated with heterobifunctional compounds described in the present invention. Immunoblots of MV4; 11 leukemia cells expressing indicated proteins fused to mutant FKBP* with an HA tag. Cells were treated for 16 hours with indicated concentrations of FKBP* selective heterobifunctional compounds, dFKBP7 or dFKBP13 and abundance of fusion proteins measured by western immunoblot analysis. Additional experimental details are given in Example 15.
To test the general utility of the dTAG technology across several protein types, the indicated proteins fused to the dTAG in MV4; 11 leukemia cells were expressed. Upon treatment with the indicated dFKBP bifunctional molecules (dFKBP7 and dFKBP13), targeted protein degradation was observed as measured by western blot.

[4] = tested on: IL-2; assay: IL-2 ELISA of co-culture supernatants of SMART-CAR expressing Jurkat T-cells; assay type: cell-based; settings: CD19 positive Raji cells; 1:3 ratio; 4 hours; 250 nM dFKBP7
Description: FIG. 35 is a histogram bar plot quantifying IL-2 levels produced from SMART-CAR expressing Jurkat T-cells after co-incubation with antigen expressing K562 cells in a 1:3 ratio (T cell to K562 cell) for 24 hours as described in Example 29. IL-2 levels were quantified by ELISA using co-culture supernatants.
FIG. 36 is a histogram bar plot quantifying IL-2 levels produced from SMART-CAR expressing Jurkat T-cells after co-incubation with CD19 positive Raji cells in a 1:3 ratio (T cells to Raji cells) for 4 hours.
FIG. 35 illustrates the specificity in activation of SMART-CAR expressing T-cells for CD19 expressing target tumor cells. SMART-CAR expressing Jurkat T-cells were co-incubated with antigen expressing K562 cells in a 1:3 ratio (T cell to K562 cell) for 24 hours. IL-2 levels were quantified by ELISA using co-culture supernatants.
FIG. 36 illustrates the chemical control of SMART-CAR expressing T-cell activation using the hetero bifunctional molecule dFKBP7. SMART-CAR expressing Jurkat T-cells were co-incubated with CD19 positive Raji cells in a 1:3 ratio.

T1 sequence (P62942 whole entry): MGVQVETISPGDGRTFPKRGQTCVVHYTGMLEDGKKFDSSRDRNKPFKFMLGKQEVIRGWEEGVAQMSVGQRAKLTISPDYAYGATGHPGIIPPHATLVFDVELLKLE

Compound: CC[C@H](C(=O)N1CCCC[C@H]1C(=O)O[C@H](CCc1ccc(OC)c(OC)c1)c1cccc(OCC(=O)NCCCOCCOCCOCCCNC(=O)COc2cccc3c2C(=O)N(C2CCC(=O)NC2=O)C3=O)c1)c1cc(OC)c(OC)c(OC)c1 (some centres unmarked) [dFKBP7]
- SMART-CAR expression [1]: minimal
- Degradation of HA-tagged FKBP12WT (immunoblot) ([2]; 293FT cells CRBN-WT or CRBN-/-, indicated concentrations): not FKBPWT
- Degradation of FKBP12WT or endogenous FKBP12 (immunoblot) ([2]; isogenic 293FT cells CRBN-WT or CRBN-/-, 100 nM): not FKBP12WT or endogenous FKBP12
- Degradation of proteins fused to dTAG [3]: degradation was observed with nanomolar concentrations
- IL-2 production [4]: completely suppressed
